Here are results for 12 compounds from publication PMC3303072 (Cell Biology and Toxicology, 2012).

Structures are written as SMILES. Like-named read-outs stand apart in the source and are kept apart here.

Data set [1] concerns HepG2 cells. The conditions noted are these: xCELLigence cell index, LC50 after 48 and 72 h.
Data set [2] has as its system HepaRG cells. The note with it: xCELLigence cell index, LC50 after 48 and 72 h.
Data set [3] relates to cryopreserved human hepatocytes. The conditions noted are these: for Cytotoxicity class by LC50: cryopreserved HH (3 donors), xCELLigence cell index, LC50 after 48 and 72 h; for Cytotoxicity (in words): cryopreserved HH compared with HepG2 and HepaRG, xCELLigence.
For data set [4] the following is noted: read-out: Cmax (the maximum concentration of a drug in the blood after dosing); in vivo studies; cited from earlier work.
Data set [5] has as its system HepG2 cells. The format is cell-based, human. The note with it: control (DMSO) vs induced, 24 h; for Number of differentially expressed probes, Down: fold change <-2, 1,250 probes; for Number of differentially expressed probes, Up: fold change >2, 1,250 probes; for Number of differentially expressed probes, Either: fold change >2 or <-2, 1,250 probes.
The subject of data set [6] is HepaRG cells. It counts as cell-based, human. The note with it: control (DMSO) vs induced, 24 h; for Number of differentially expressed probes, Down: fold change <-2, 1,250 probes; for Number of differentially expressed probes, Up: fold change >2, 1,250 probes; for Number of differentially expressed probes, Either: fold change >2 or <-2, 1,250 probes.
For data set [7], the system named is primary human hepatocytes. It counts as cell-based. The conditions noted are these: control (DMSO) vs induced, 24 h, 1,250 probes; for Number of differentially expressed probes, Down: fold change <-2; for Number of differentially expressed probes, Up: fold change >2; for Number of differentially expressed probes, Either: fold change >2 or <-2.
In a further data set the test system is CYP3A4. The note with it: human.
In another data set the test system is CYP1A2. The conditions noted are these: human.
Data set [8] in a line: in vitro. The note with it: human, Cytotoxicity class by LC50.
Data set [9] can be described thus: in vitro. The conditions noted are these: human, Cytotoxicity class by LC50. This is another data set of the same source.
Data set [10] can be described thus: in vitro. The note with it: human, Cytotoxicity class by LC50. This is another data set of the same source.
For data set [11] the following is noted: 100 mM stock in 100% DMSO; a 50 mM stock was prepared instead.

`CC(=O)Oc1ccccc1C(=O)O` [aspirin]: the “Cytotoxicity class by LC50” value (in the data set with HepG2 cells [1]; with HepaRG cells [2]; in data set [3]) was “non cytotoxic” each time.

Regarding `CC(CCc1ccccc1)NCC(O)c1ccc(O)c(C(N)=O)c1` (stereo not shown) [labetalol], the “Cytotoxicity (in words)” value in [3] was “induced cytotoxicity in HH only”.

In the case of `C#C[C@]1(O)CC[C@H]2[C@@H]3CCC4=Cc5oncc5C[C@]4(C)[C@H]3CC[C@@]21C` [danazol], the Cmax in data set [4] is 160 nM.

`CCC1(c2ccccc2)C(=O)NC(=O)NC1=O` [PB, phenobarbital]: the “Number of differentially expressed probes, Down” value (“Number of differentially … Down” for short) worked out at 60 in the data set on HepG2 cells [5]; 25 in the data set with HepaRG cells [6]; 44 in [7] (HH1); 121 in [7] (HH2); 29 in data set [7] (HH3). Further, the “Number of differentially expressed probes, Up” value (“Number of differentially … Up” below) in the data set on HepG2 cells [5] was found to be 17; in the data set on HepaRG cells [6] it was 35; in data set [7] (HH1), 46; in data set [7] (HH2), 39; in data set [7] (HH3), 76. Also, the “Number of differentially expressed probes, Either” value (“Number of differentially … Either” for short) stood at 77 in the data set on HepG2 cells [5]; 60 in the data set on HepaRG cells [6]; 90 in data set [7] (HH1); 160 in data set [7] (HH2); 105 in [7] (HH3). In addition, the “Effect on CYP2B6 activity” value with CYP2B6 is reported as “did not have any effect”. Also, the “Fold increase in CYP3A4 activity” value with CYP3A4 was 36.6 times.

With `O=c1cc(-c2ccccc2)oc2ccc3ccccc3c12` [BNF, beta-naphthoflavone], the “Number of differentially … Down” value came out at 61 in the data set on HepG2 cells [5]; 25 in the data set with HepaRG cells [6]; 50 in [7] (HH1); 81 in data set [7] (HH2); 35 in [7] (HH3). Moreover, the “Number of differentially … Up” value amounted to 31 in the data set with HepG2 cells [5]; 106 in the data set on HepaRG cells [6]; 74 in data set [7] (HH1); 64 in [7] (HH2); 51 in [7] (HH3). Further, the “Number of differentially … Either” value in the data set with HepG2 cells [5] was 92; in the data set with HepaRG cells [6], 131; in data set [7] (HH1) it was 124; in data set [7] (HH2), 145; in data set [7] (HH3) it was 86. In addition, the “Fold increase in CYP1A2 activity” value in the data set on CYP1A2 was found to be 9.1 fold.

As usually defined, the CC50 is the concentration at which the toxic effect on the cells reaches its halfway point. A high value points to lower toxicity to the cells. On to `CCCCc1oc2ccccc2c1C(=O)c1cc(I)c(OCCN(CC)CC)c(I)c1` [amiodarone], for which the CC50 in “in vitro [8]” is less than 10 µM.

For `CCOC(=O)C(C)(C)Oc1ccc(Cl)cc1` [clofibrate], the “Cytotoxicity class by LC50” value (in the data set on HepG2 cells [1]; in the data set on HepaRG cells [2]; in [3]) was “non cytotoxic” in each case.

Consider `CO[C@H]1/C=C/O[C@@]2(C)Oc3c(C)c(O)c4c(O)c(c(/C=N/N5CCN(C)CC5)c(O)c4c3C2=O)NC(=O)/C(C)=C\C=C\[C@H](C)[C@H](O)[C@@H](C)[C@@H](O)[C@@H](C)[C@H](OC(C)=O)[C@@H]1C` [RIF, rifampicin], for which the “Number of differentially … Down” value in the data set with HepG2 cells [5] is on record as 22; with HepaRG cells [6] it was 22; in data set [7] (HH1), 61; in data set [7] (HH2), 49; in [7] (HH3) it was 22. The “Number of differentially … Up” value with HepG2 cells [5] came to 27; in the data set with HepaRG cells [6], 41; in [7] (HH1), 26; in data set [7] (HH2) it was 39; in data set [7] (HH3) it was 59. Besides, the “Number of differentially … Either” value is reported as 49 in the data set on HepG2 cells [5]; 63 in the data set with HepaRG cells [6]; 87 in data set [7] (HH1); 88 in data set [7] (HH2); 81 in [7] (HH3).

As to `CC/C(=C(\c1ccccc1)c1ccc(OCCN(C)C)cc1)c1ccccc1` [tamoxifen], the CC50 in the data set “in vitro [9]” was 10 to 50 µM; in “in vitro [10]”, 10 to 50 µM; in the data set “in vitro [8]”, less than 10 µM.

In the case of `Nc1c2c(nc3ccccc13)CCCC2` [tacrine], the CC50 in “in vitro [8]” is 50 to 100 µM.

Turning to `CC(=O)N1CCN(c2ccc(OCC3COC(Cn4ccnc4)(c4ccc(Cl)cc4Cl)O3)cc2)CC1` (stereo not shown) [ketoconazole], the “Cytotoxicity (in words)” value in data set [3] is recorded as “induced cytotoxicity in HH only”. Moreover, in [11], the “Solubility of stock solution” value was “solubility problems occurred at 100 mM”.

Take `CC(C)C(=O)Nc1ccc([N+](=O)[O-])c(C(F)(F)F)c1` [flutamide]: the “Cytotoxicity (in words)” value in data set [3] is given as “induced cytotoxicity in HH only”.
